According to patent US20180353398A1, “HAIR CARE REGIMEN USING NA AEROSOL FOAM CONCENTRATED CONDITIONER” (The Procter & Gamble Company, priority 2015, published 2018):
Where a name gives a salt, the structure may show the parent alone.

Assay: Kinematic viscosity of shampoo base formulation with viscosity reducing agent (calibrated viscometers)
Assay type: physicochemical
Details: lowest of 2-8% agent in base formulation, 40° C.
From the text: Now referring to Tables 11 and 12, the base formulations were made by mixing 1.6% perfume, 24% linear sodium undecyl sulfate (CAS# 1072-24-8) active, 6% lauramidopropyl betaine (CAS# 4292-10-8) active and 60.4% deionized water which leaves 8% unfilled for the addition of a viscosity reducing agent (the balance being filled in by distilled water). For all compositions, the surfactant, water and additives including viscosity reducing agents were expected to be in a single phase.
The agents from Tables 11 and 12 were added to the base formulation at a percentage of 2%, 4%, 6%, and 8% into the above surfactant solution. The subsequent formulations were vortexed and put into oven at 60° C. overnight to form homogeneous solution. The viscosities of the formulations were measured with calibrated viscometers (Size 200/350/450) from Cannon Instrument Company (2139 High Tech Road, State College, Pa., USA, 16803).
After the equilibration, the formulations were drawn to reach the starting mark with a rubber suction bulb and the flow time between the starting mark and end mark was recorded for calculation. Each formulation was measured three times to calculate average and standard deviation. Between samples, viscometer was cleaned with water and acetone to rinse off residual.
Viscosity values in Table 11 and Table 12 were calculated based on the equation:
Viscosity (mm^2/s. (cSt))=Time (s)*Constant (mm^2/s^2. (cSt/s))
The time in the above equation is the flow time recorded in the experiment and the constant numbers for each calibrated viscometer were obtained from the manuals.

Row | SMILES | Lowest viscosity achieved (cSt)
1 | CCC(=O)O[C@@H]1C[C@H]2CC[C@]1(C)C2(C)C (racemic) [Iso Bornyl Propionate] | 463 cSt
2 | CCCCCCCC(OC)OC [1,1-Dimethoxyoctane] | 308 cSt
3 | CC(C)CC=C(C=O)C(C)C [2-Isopropyl-5-methyl-2-hexenal] | 332 cSt
4 | CC(=O)OCCC(C)CCCC(C)C (stereo not shown) [3,7-Dimethyloctyl Acetate] | 446 cSt
5 | CCC(CC(C)CC)=NO (stereo not shown) [5-Methyl-3-Heptanone Oxime] | 246 cSt
6 | CCCCOC(=O)c1ccccc1O [Butyl Salicylate] | 368 cSt
7 | CC12CCC(CC1=O)C2(C)C (stereo not shown) [Camphor Gum] | 127 cSt
8 | CC(=O)OCCC(C)CCC=C(C)C (stereo not shown) [Citronellyl Acetate] | 363 cSt
9 | CCC(=O)OC1CC2CC1C1CC=CC21 (stereo not shown) [Cyclaprop] | 404 cSt
10 | CCCCCCC1C(=O)CCC1C(=O)OC (stereo not shown) [Dihyro Iso Jasmonate] | 119 cSt
11 | C=C(C)[C@H]1CC=C(C)CC1 [Dipentene] | 35 cSt
12 | CCO [Ethanol] | 29 cSt
13 | CC12CCC(CC1)C(C)(C)O2 [Eucalyptol] | 203 cSt
14 | CC(C)=CCC/C(C)=C/COC(=O)Cc1ccccc1 [Geranyl Phenyl Acetate] | 34 cSt
15 | CCCCCCCCCCCCCCCC [Hexadecane] | 18 cSt
16 | CC(CC=O)CCCC(C)(C)O (stereo not shown) [Hydroxycitronellal] | 34 cSt
17 | CC(C)COC(=O)c1ccccc1O [Iso Butyl Salicylate] | 409 cSt
18 | CCCCCCCCCCCCCC(=O)OC(C)C [Iso Propyl Myristate] | 30 cSt
19 | CC(C)CCOC(=O)c1ccccc1O [Isoamyl Salicylate] | 193 cSt
20 | CCCCCC(=O)OCC(C)C [Isobutyl Hexanoate] | 109 cSt
21 | C=C(C)[C@H]1CC=C(C)CC1 [Limonene] | 86 cSt
22 | C=CC(C)(CCC=C(C)C)OC(=O)C(C)C (stereo not shown) [Linalyl Iso Butyrate] | 38 cSt
23 | COC(C)(C)C1CC=C(C)CC1 (stereo not shown) [Orange Flower Ether] | 419 cSt
24 | CC(=O)CCc1ccc(O)cc1 [Raspberry Ketone] | 33 cSt
25 | CCOC(=O)CC(O)(CC(=O)OCC)C(=O)OCC [Triethyl Citrate] | 41 cSt
26 | CCCCCC1(C)CCC(C)(C)C1=O (stereo not shown) [Veloutone] | 47 cSt
27 | CC1=CC=C(C(C)C)CC1 [alpha-Terpinene] | 42 cSt
28 | CC1=CCC(C(C)C)=CC1 [gamma-Terpinene] | 32 cSt
